Source: patent publication EP0871454B1, “PHOSPHOROUS-CONTAINING CYSTEINE AND SERINE PROTEASE INHIBITORS” (CEPHALON, INC., priority 1995, dated 1997)

Target: T1, Calpain I (Homo sapiens, UniProt P07384)
T1 construct: made in house
T1 sequence (P07384 1-714): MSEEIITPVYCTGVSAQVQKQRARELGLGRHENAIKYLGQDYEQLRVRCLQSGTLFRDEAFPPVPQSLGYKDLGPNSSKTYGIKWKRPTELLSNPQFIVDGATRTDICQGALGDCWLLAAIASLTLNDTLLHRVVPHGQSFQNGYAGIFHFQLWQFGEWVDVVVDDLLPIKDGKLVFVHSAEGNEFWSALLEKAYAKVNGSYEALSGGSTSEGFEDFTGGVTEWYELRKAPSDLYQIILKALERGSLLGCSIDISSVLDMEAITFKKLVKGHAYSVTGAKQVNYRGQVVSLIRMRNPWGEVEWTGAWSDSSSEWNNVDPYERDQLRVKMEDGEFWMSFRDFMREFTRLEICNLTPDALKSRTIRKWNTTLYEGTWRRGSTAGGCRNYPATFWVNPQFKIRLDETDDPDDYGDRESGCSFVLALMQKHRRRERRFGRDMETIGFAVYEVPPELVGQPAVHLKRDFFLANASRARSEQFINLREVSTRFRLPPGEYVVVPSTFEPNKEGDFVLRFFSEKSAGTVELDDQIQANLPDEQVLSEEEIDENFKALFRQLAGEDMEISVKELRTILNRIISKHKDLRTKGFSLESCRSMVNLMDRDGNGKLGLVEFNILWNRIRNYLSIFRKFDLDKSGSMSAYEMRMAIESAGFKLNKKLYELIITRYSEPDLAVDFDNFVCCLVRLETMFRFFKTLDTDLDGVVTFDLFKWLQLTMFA
T1 sequence (P04632 1-268 partner): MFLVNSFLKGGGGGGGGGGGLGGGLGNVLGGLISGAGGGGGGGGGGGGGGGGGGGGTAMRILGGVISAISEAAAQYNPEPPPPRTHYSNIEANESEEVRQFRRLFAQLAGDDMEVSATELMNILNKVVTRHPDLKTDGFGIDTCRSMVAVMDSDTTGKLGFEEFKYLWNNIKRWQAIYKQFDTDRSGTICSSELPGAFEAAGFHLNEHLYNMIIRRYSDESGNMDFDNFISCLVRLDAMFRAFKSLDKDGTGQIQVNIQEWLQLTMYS
Experiment: Inhibition and rate of inactivation of calpain I activity (Succ-Leu-Tyr-MNA substrate hydrolysis)
Format: biochemical
Conditions: for kobs/I: apparent second order rate constant of inactivation, pseudo-first order conditions, compounds tested at 0.1 µM, mean of three or more single cuvette analyses
Description: Inhibition and Rate of Inactivation of Cysteine Protease Activity
To evaluate inhibitory activity, stock solutions (40 times concentrated) of each compound to be tested were prepared in 100% anhydrous DMSO and 5 µl of each inhibitor preparation were aliquoted into each of three wells of a 96 well plate. Calpain I, prepared by a modification of the method of W. J. Lee et al. (Biochem. Internatl. 22: 163-171 (1990)), was diluted into assay buffer (i.e., 50mM Tris, 50mM NaCl, 1mM EDTA, 1mM EGTA, and 5mM β-mercaptoethanol, pH 7.5 including 0.2mM Succ-Leu-Tyr-MNA) and 175 µl aliquoted into the same wells containing the independent inhibitor stocks as well as to positive control wells containing 5 µl DMSO, but no compound. To start the reaction, 20 µl of 50 mM CaCl2 in assay buffer was added to all wells of the plate, excepting three, which were used as background signal baseline controls. Substrate hydrolysis was monitored every 5 minutes for a total of 30 minutes. Substrate hydrolysis in the absence of inhibitor was linear for up to 15 minutes.
Inhibition of calpain I activity was calculated as the percent decrease in the rate of substrate hydrolysis in the presence of inhibitor (vi) relative to the rate in its absence (vo). Comparison between vo and vi was made within the linear range for substrate hydrolysis. […] Apparent second order rate constants were determined from analysis of reaction progress curves under pseudo-first order conditions. Each determination represents the mean of three or more independent single cuvette analyses continually monitored via a Perkin-Elmer LS50B spectrofluorimeter.
Values for kobs/I are given in Table I for compounds tested at 0.1 µM. [drawing 8]

% Inhib. @ 0.1 uM (0.1 uM compound, percent decrease in rate of substrate hydrolysis relative to no inhibitor) | Compound | kobs/I
– | CC(C)C[C@H](NC(=O)OC(C)(C)C)C(=O)N[C@@H](Cc1ccccc1)C(=O)COP(=O)(OCc1ccccc1)OCc1ccccc1 [Example 35, Dibenzyl (3S)-[3-[(N-t-Butoxycarbonyl-L-leucyl)amino]-2-oxo-4-phenylbutyl]phosphate] | 242000 M⁻¹ s⁻¹
47% | CC(C)C[C@H](NC(=O)OCc1ccccc1)C(=O)N[C@@H](Cc1ccccc1)C(=O)COP1(=O)OCC(OCc2ccccc2)CO1 (some centres unmarked) [Example 47] | –
– | CC(C)C[C@H](NC(=O)C12OC(CO)C(O)C1OC(C)(C)O2)C(=O)N[C@@H](Cc1ccccc1)C(=O)COP(=O)(OCc1ccccc1)OCc1ccccc1 (stereo partly drawn) [Example 38, Dibenzyl (3S)-[3-[(N-monoisopropylidine-2-keto-L-gulonyl-L-leucyl)amino]-2-oxo-4-phenylbutyl] phosphate)] | 116000 M⁻¹ s⁻¹
– | CC(C)CC(NC(=O)C12OC3COC(C)(C)OC3C1OC(C)(C)O2)C(=O)NC(Cc1ccccc1)C(=O)COP(=O)(OCc1ccccc1)OCc1ccccc1 [Example 37, Dibenzyl (3S)-[3-[(N-diisopropylidine-2-keto-L-gulonyl-L-leucyl)amino]-2-oxo-4-phenylbutyl] phosphate] | 113000 M⁻¹ s⁻¹
– | CC(C)C[C@H](NS(=O)(=O)N1CCOCC1)C(=O)N[C@@H](Cc1ccccc1)C(=O)COP(=O)(OCc1ccccc1)OCc1ccccc1 [Example 36, Dibenzyl (3S)-[3-[(N-morpholinylsulfonyl-L-leucyl)amino]-2-oxo-4-phenylbutyl] phosphate] | 182000 M⁻¹ s⁻¹
